Laboratory results: patent US12227501B2, “3-amino-2-[2-(acylamino)pyridin-4-yl]-1,5,6,7-tetrahydro-4h-pyrrolo[3,2-c]pyridin-4-one as CSNK1 inhibitors” (Bayer Aktiengesellschaft, priority 2019, dated 2025)
“And” between values parts separate entries of the source, which are not always exact repeats. Identical values can stand only once. Like-named read-outs stand apart in the source and are kept apart here.

Assays:
Assay type in all cases: biochemical
human CSNK1A1 [1] = target: T1, human CSNK1A1 (Homo sapiens (Human), UniProt P48729); assay: CSNK1A1 Assay 2 (ADP-Glo, 1 μM ATP); conditions: substrate biotin-Ahx-KRRRAL-pS-VASLPGL, read-out: CSNK1A1 Assay 2 IC50 [mol/l] (median)
T1 sequence (P48729 whole entry, the tested form may be a part): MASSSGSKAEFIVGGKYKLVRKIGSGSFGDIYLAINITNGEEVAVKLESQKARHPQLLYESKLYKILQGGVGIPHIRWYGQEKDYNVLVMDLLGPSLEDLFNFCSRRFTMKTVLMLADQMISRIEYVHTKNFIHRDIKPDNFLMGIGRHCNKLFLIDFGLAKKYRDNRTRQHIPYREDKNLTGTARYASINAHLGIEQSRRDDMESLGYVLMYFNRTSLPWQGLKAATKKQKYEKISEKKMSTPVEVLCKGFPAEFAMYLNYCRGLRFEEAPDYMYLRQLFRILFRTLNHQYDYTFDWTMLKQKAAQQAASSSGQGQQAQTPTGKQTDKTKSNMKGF
Procedure, shortened: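 Full-length human CSNK1A1 as an N-terminal GST fusion (baculovirus/insect cells) with biotinylated peptide substrate biotin-Ahx-KRRRAL-pS-VASLPGL and 1 μM ATP, in HEPES pH 7.5 buffer. Compounds were pre-incubated with enzyme (~0.0375 ng/μL) for 15 min at 22 °C. Generated ADP was read by ADP-Glo luminescence as the activity measure.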

human CSNK1A1 [2] = target: T1, human CSNK1A1; assay: CSNK1A1 High ATP Assay (ADP-Glo, 1 mM ATP); conditions: read-out: CSNK1A1 high ATP assay IC50 [mol/l] (median)
Procedure, shortened: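 Kinase activity taken as ADP generated, quantified by ADP-Glo luminescence after 1 h ATP depletion and 1 h detection at 22 °C. Enzyme is GST–full-length human CSNK1A1 (insect cell-expressed), pre-bound to compound for 15 min, with phosphopeptide substrate and 1 mM ATP.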

human CSNK1D = human CSNK1D (Homo sapiens (Human), UniProt P48730); assay: CSNK1D Assay (ADP-Glo, 1 μM ATP); conditions: read-out: CSNK1D IC50 [mol/l] (median)
human CSNK1D, sequence (P48730 whole entry): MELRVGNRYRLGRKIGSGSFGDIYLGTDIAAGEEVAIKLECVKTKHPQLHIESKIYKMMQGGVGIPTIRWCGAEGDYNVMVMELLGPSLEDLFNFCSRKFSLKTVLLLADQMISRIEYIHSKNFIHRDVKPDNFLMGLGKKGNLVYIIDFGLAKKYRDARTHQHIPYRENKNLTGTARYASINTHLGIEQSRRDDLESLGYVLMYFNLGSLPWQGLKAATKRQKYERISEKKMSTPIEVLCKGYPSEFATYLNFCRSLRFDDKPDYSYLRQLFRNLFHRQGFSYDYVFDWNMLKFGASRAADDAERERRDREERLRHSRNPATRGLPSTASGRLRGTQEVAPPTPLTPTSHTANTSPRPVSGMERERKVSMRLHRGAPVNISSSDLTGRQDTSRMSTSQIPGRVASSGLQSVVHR
Procedure, shortened: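 Activity is read as ADP produced, by ADP-Glo luminescence after 1 h steps at 22 °C. The reaction uses 1 μM ATP, a biotinylated peptide and insect-cell-expressed GST–CSNK1D (about 0.5 ng/μL) in pH 7.5 HEPES buffer, with 15 min compound–enzyme preincubation.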

[3] = target: wild-type Epidermal Growth Factor Receptor (EGFR) (Homo sapiens (Human), UniProt P00533); assay: WT-EGFR Kinase Assay (TR-FRET, 2 mM ATP)
wild-type Epidermal Growth Factor Receptor (EGFR), sequence (P00533 669-1210): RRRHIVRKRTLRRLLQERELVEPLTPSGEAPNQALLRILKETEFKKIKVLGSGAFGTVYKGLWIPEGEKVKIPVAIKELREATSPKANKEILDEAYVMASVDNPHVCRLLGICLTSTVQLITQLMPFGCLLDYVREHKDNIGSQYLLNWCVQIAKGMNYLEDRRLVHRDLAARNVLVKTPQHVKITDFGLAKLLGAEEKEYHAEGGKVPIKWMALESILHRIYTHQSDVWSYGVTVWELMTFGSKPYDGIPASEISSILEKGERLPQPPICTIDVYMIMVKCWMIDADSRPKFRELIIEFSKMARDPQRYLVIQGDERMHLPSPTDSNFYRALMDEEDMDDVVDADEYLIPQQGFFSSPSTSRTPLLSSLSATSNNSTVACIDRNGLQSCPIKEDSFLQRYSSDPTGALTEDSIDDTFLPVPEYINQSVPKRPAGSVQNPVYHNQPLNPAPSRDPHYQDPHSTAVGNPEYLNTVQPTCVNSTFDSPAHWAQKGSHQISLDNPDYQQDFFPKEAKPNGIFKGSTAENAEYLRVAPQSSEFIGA

[4] = EGFR Wildtyp- 2 mM ATP IC50 [mol/l] (median)
[5] = read-out: EGFR Wildtyp- 2 mM ATP IC50 [mol/l] (median)

Compound | IC50 (human CSNK1A1 [1]) [nM] | IC50 (human CSNK1A1 [2]) [nM] | IC50 (human CSNK1D) [nM] | IC50 [3, 4] | IC50 [3, 5] [nM]
O=C1NC2(CCC2)Cc2[nH]c(-c3ccnc(NC(=O)C(CC(F)F)c4ccc(F)cc4)c3)c(Nc3cccc(F)c3Cl)c21 (single isomer, unassigned; enantiomer 1) [Example 124, (−)-N-{4-[3′-(2-chloro-3-fluoroanilino)-4′-oxo-1′,4′,5′,7′-tetrahydrospiro[cyclobutane-1,6′-pyrrolo[3,2-c]pyridin]-2′-yl]pyridin-2-yl}-4,4-difluoro-2-(4-fluorophenyl)butanamide (Enantiomer 1)] | 74.6 | > 5710 | 58.7 | > 20000 nM | 
Cc1ccc(CC(=O)Nc2cc(-c3[nH]c4c(c3Nc3ccccc3)C(=O)N(C)CC4)ccn2)cc1 [Example 68, N-[4-(3-anilino-5-methyl-4-oxo-4,5,6,7-tetrahydro-1H-pyrrolo[3,2-c]pyridin-2-yl)pyridin-2-yl]-2-(4-methylphenyl)acetamide] | 3.2 | 74.2 | 3.63 |  | 2100
CC(C(=O)Nc1cc(-c2[nH]c3c(c2Nc2ccccc2)C(=O)N(C)C(C)C3)ccn1)c1ccc(F)cc1 (single isomer, unassigned; (+)) [Example 96, (+)-N-{4-[3-anilino-5,6-dimethyl-4-oxo-4,5,6,7-tetrahydro-1H-pyrrolo[3,2-c]pyridin-2-yl]pyridin-2-yl}-2-(4-fluorophenyl)propanamide] | 5.37 | 35.8 | 4.36 | 7040 nM | 
CN(C)CCCC(C(=O)Nc1cc(-c2[nH]c3c(c2Nc2ccccc2)C(=O)N(C)CC3)ccn1)c1ccccc1 (racemic) [Example 58, N-[4-(3-anilino-5-methyl-4-oxo-4,5,6,7-tetrahydro-1H-pyrrolo[3,2-c]pyridin-2-yl)pyridin-2-yl]-5-(dimethylamino)-2-phenylpentanamide] | 12.4 | 1200 | 40.6 | > 20000 nM | 
O=C(Cc1ccc(F)cc1)Nc1cc(-c2[nH]c3c(c2Nc2ccccc2Cl)C(=O)NCC3)ccn1 [Example 13, N-{4-[3-(2-chloroanilino)-4-oxo-4,5,6,7-tetrahydro-1H-pyrrolo[3,2-c]pyridin-2-yl]pyridin-2-yl}-2-(4-fluorophenyl)acetamide] | 1.9 | 37 | 7.06 |  | 1050
CC1(C)Cc2[nH]c(-c3ccnc(NC(=O)C(CN)c4ccc(F)cc4)c3)c(Nc3ccccc3)c2C(=O)N1 (single isomer, unassigned; enantiomer 1) [Example 140, 3-amino-N-[4-(3-anilino-6,6-dimethyl-4-oxo-4,5,6,7-tetrahydro-1H-pyrrolo[3,2-c]pyridin-2-yl)pyridin-2-yl]-2-(4-fluorophenyl)propanamide (Enantiomer 1)] | 4.1 | 56.9 | 9.95 | > 20000 nM | 
CC(C(=O)Nc1cc(-c2[nH]c3c(c2Nc2ccccc2)C(=O)N(C)CC3)ccn1)c1ccc(Cl)cc1 (single isomer, unassigned; (-)) [Example 80, (−)-N-[4-(3-anilino-5-methyl-4-oxo-4,5,6,7-tetrahydro-1H-pyrrolo[3,2-c]pyridin-2-yl)pyridin-2-yl]-2-(4-chlorophenyl)propanamide] | 24.1 | 2840 | 30.3 | > 20000 nM | 
O=C(Cc1ccc(F)cc1)Nc1cc(-c2[nH]c3c(c2Nc2cccc(F)c2Cl)C(=O)NC2(CCC2)C3)ccn1 [Example 122, N-{4-[3′-(2-chloro-3-fluoroanilino)-4′-oxo-1′,4′,5′,7′-tetrahydrospiro[cyclobutane-1,6′-pyrrolo[3,2-c]pyridin]-2′-yl]pyridin-2-yl}-2-(4-fluorophenyl)acetamide] | 4.12 | 26.8 | 4.71 |  | 2150
CC(C(=O)Nc1cc(-c2[nH]c3c(c2Nc2ccccc2)C(=O)N(C2CC2)CC3)ccn1)c1ccc(F)cc1 (stereo not drawn) [Example 8, N-[4-(3-anilino-5-cyclopropyl-4-oxo-4,5,6,7-tetrahydro-1H-pyrrolo[3,2-c]pyridin-2-yl)pyridin-2-yl]-2-(4-fluorophenyl)propanamide] | 15.4 | 1930 | 37.9 |  | > 20000
CC1(C)Cc2[nH]c(-c3ccnc(NC(=O)C(CC(F)F)c4ccc(F)cc4)c3)c(Nc3cccc(F)n3)c2C(=O)N1 (single isomer, unassigned; enantiomer 1) [Example 129, 4,4-difluoro-2-(4-fluorophenyl)-N-(4-{3-[(6-fluoropyridin-2-yl)amino]-6,6-dimethyl-4-oxo-4,5,6,7-tetrahydro-1H-pyrrolo[3,2-c]pyridin-2-yl}pyridin-2-yl)butanamide (Enantiomer 1)] | 3.39 | 6.37 | 5.4 | > 20000 nM | 
CN1CCc2[nH]c(-c3ccnc(NC(=O)C(CO)c4ccc(F)cc4)c3)c(Nc3ccccc3)c2C1=O (stereo not drawn) [Example 17, N-[4-(3-anilino-5-methyl-4-oxo-4,5,6,7-tetrahydro-1H-pyrrolo[3,2-c]pyridin-2-yl)pyridin-2-yl]-2-(4-fluorophenyl)-3-hydroxypropanamide] | 10.9 | 66.5 | 39.3 | 14500 nM and 14300 nM | > 20000
Cc1ccccc1Nc1c(-c2ccnc(NC(=O)C(CC(F)F)c3ccc(F)cc3)c2)[nH]c2c1C(=O)NC1(CCC1)C2 (single isomer, unassigned; enantiomer 1) [Example 144, (−)-4,4-difluoro-2-(4-fluorophenyl)-N-{4-[3′-(2-methylanilino)-4′-oxo-1′,4′,5′,7′-tetrahydrospiro[cyclobutane-1,6′-pyrrolo[3,2-c]pyridin]-2′-yl]pyridin-2-yl}butanamide-(Enantiomer 1)] | 80.7 | 5060 | 82 | > 20000 nM | 
CC1Cc2[nH]c(-c3ccnc(NC(=O)Cc4ccc(F)cc4)c3)c(Nc3ccccc3)c2C(=O)N1C (single isomer, unassigned; (+)) [Example 89, (+)-N-{4-[3-anilino-5,6-dimethyl-4-oxo-4,5,6,7-tetrahydro-1H-pyrrolo[3,2-c]pyridin-2-yl]pyridin-2-yl}-2-(4-fluorophenyl)acetamide] | 1.88 | 364 | 5.72 | 6050 nM | 
CC1Cc2[nH]c(-c3ccnc(NC(=O)Cc4ccc(F)cc4)c3)c(Nc3ccccc3)c2C(=O)N1C (racemic) [Example 88, N-{4-[3-anilino-5,6-dimethyl-4-oxo-4,5,6,7-tetrahydro-1H-pyrrolo[3,2-c]pyridin-2-yl]pyridin-2-yl}-2-(4-fluorophenyl)acetamide] | 2.33 | 65.1 | 5.18 | 727 nM | 
COC(=O)c1ccc(CC(=O)Nc2cc(-c3[nH]c4c(c3Nc3ccccc3)C(=O)N(C)CC4)ccn2)cc1 [Example 117, methyl 4-(2-{[4-(3-anilino-5-methyl-4-oxo-4,5,6,7-tetrahydro-1H-pyrrolo[3,2-c]pyridin-2-yl)pyridin-2-yl]amino}-2-oxoethyl)benzoate] | 1.46 | 96.2 | 2.99 |  | 1270
CC(C(=O)Nc1cc(-c2[nH]c3c(c2Nc2ccccc2F)C(=O)N(C)CC3)ccn1)c1ccc(F)cc1 (single isomer, unassigned; (-)) [Example 41, (−)-N-{4-[3-(2-fluoroanilino)-5-methyl-4-oxo-4,5,6,7-tetrahydro-1H-pyrrolo[3,2-c]pyridin-2-yl]pyridin-2-yl}-2-(4-fluorophenyl)propanamide] | 22.6 | 3530 | 31.2 | > 20000 nM | 
O=C(Cc1ccc(F)cc1)Nc1cc(-c2[nH]c3c(c2Nc2ccccc2)C(=O)N(CC2CC2)CC3)ccn1 [Example 20, N-{4-[3-anilino-5-(cyclopropylmethyl)-4-oxo-4,5,6,7-tetrahydro-1H-pyrrolo[3,2-c]pyridin-2-yl]pyridin-2-yl}-2-(4-fluorophenyl)acetamide] | 9.72 | 1660 | 24.2 | 18100 nM | > 20000
O=C1NC2(CCC2)Cc2[nH]c(-c3ccnc(NC(=O)C(CC(F)F)c4ccc(F)cc4)c3)c(Nc3cccc(F)c3Cl)c21 (racemic) [Example 123, N-{4-[3′-(2-chloro-3-fluoroanilino)-4′-oxo-1′,4′,5′,7′-tetrahydrospiro[cyclobutane-1,6′-pyrrolo[3,2-c]pyridin]-2′-yl]pyridin-2-yl}-4,4-difluoro-2-(4-fluorophenyl)butanamide (Racemate)] | 13.5 | 29.1 | 9.91 | 56.4 nM | 
CCC(C(=O)Nc1cc(-c2[nH]c3c(c2Nc2ccccc2)C(=O)N(C)CC3)ccn1)c1ccc(F)cc1 (racemic) [Example 75, N-[4-(3-anilino-5-methyl-4-oxo-4,5,6,7-tetrahydro-1H-pyrrolo[3,2-c]pyridin-2-yl)pyridin-2-yl]-2-(4-fluorophenyl)butanamide] | 5.49 | 164 | 8.28 | > 20000 nM | 
